The values that follow come from patent US8748415B2 (priority 2011, dated 2014).

Bounds are passed on as bounds.

A word on the EC50: it is the concentration that produces a half-maximal response.

The first assay concerns recombinant NL4-3 virus (Renilla luciferase in nef, Gag P373S). The assay is described as follows: HIV cell culture assay (luciferase activity in MT-2 cells infected with NLRluc recombinant virus). The format is cell-based. The settings on record: NL43, MT-2 cells infected 4-5 days with NLRluc recombinant virus, class symbol. Here is the method:
HIV cell culture assay—MT-2 cells and 293T cells were obtained from the NIH AIDS Research and Reference Reagent Program. MT-2 cells were propagated in RPMI 1640 media supplemented with 10% heat inactivated fetal bovine serum, […]. The 293T cells were propagated in DMEM media supplemented with 10% heat inactivated fetal bovine serum (FBS), 100 units/ml penicillin G and 100 μg/ml streptomycin. The proviral DNA clone of NL4-3 was obtained from the NIH AIDS Research and Reference Reagent Program. A recombinant NL4-3 virus, in which a section of the nef gene from NL4-3 was replaced with the Renilla luciferase gene, was used as a reference virus. In addition, residue Gag P373 was converted to P373S. Briefly, the recombinant virus was prepared by transfection of the altered proviral clone of NL4-3. Transfections were performed in 293T cells using LipofectAMINE PLUS from Invitrogen (Carlsbad, Calif.), according to manufacturer's instruction. The virus was titered in MT-2 cells using luciferase enzyme activity as a marker. Luciferase was quantitated using the Dual Luciferase kit from Promega (Madison, Wis.), with modifications to the manufacturer's protocol. The diluted Passive Lysis solution was pre-mixed with the re-suspended Luciferase Assay Reagent and the re-suspended Stop & Glo Substrate (2:1:1 ratio). Fifty (50) μL of the mixture was added to each aspirated well on assay plates and luciferase activity was measured immediately on a Wallac TriLux (Perkin-Elmer). Antiviral activities of inhibitors toward the recombinant virus were quantified by measuring luciferase activity in cells infected for 4-5 days with NLRluc recombinants in the presence serial dilutions of the inhibitor. Table 1 is the key for the data in Table 2.
As to `C=C(C)[C@@H]1CC[C@]2(CN(CCCN3CCS(=O)(=O)CC3)C(=O)CCC(=O)O)CC[C@]3(C)[C@H](CC[C@@H]4[C@@]5(C)CC=C(c6ccc(C(=O)O)cc6)C(C)(C)[C@@H]5CC[C@]43C)[C@@H]12` [Example 16, 4-((1R,3aS,5aR,5bR,7aR,11aS,11bR,13aR,13bR)-5a,5b,8,8,11a-pentamethyl-1-(prop-1-en-2-yl)-3a-((3-(1-dioxo-thiomorpholino)propylamino)methyl)-2,3,3a,4,5,5a,5b,6,7,7a,8,11,11a,11b,12,13,13a,13b-octadecahydro-1H-cyclopenta[a]chrysen-9-yl)benzoic acid], the EC50 is less than 100 nM.
The same measure, in the same setting: in the case of `C=C(C)[C@@H]1CC[C@]2(CN(CCCN3CCS(=O)(=O)CC3)C(C)=O)CC[C@]3(C)[C@H](CC[C@@H]4[C@@]5(C)CC=C(c6ccc(C(=O)O)cc6)C(C)(C)[C@@H]5CC[C@]43C)[C@@H]12` [Example 17, 4-((1R,3aS,5aR,5bR,7aR,11aS,11bR,13aR,13bR)-5a,5b,8,8,11a-pentamethyl-1-(prop-1-en-2-yl)-3a-((3-(1-dioxo-thiomorpholino)propylamino)methyl)-2,3,3a,4,5,5a,5b,6,7,7a,8,11,11a,11b,12,13,13a,13b-octadecahydro-1H-cyclopenta[a]chrysen-9-yl)benzoic acid] it was less than 100 nM.
Still for that read-out and setting: then `C=C(C)[C@@H]1CC[C@]2(CNCCCN(C)c3ccccc3)CC[C@]3(C)[C@H](CC[C@@H]4[C@@]5(C)CC=C(c6ccc(C(=O)O)cc6)C(C)(C)[C@@H]5CC[C@]43C)[C@@H]12` [Example 18, 4-((1R,3aS,5aR,5bR,7aR,11aS,11bR,13aR,13bR)-5a,5b,8,8,11a-pentamethyl-3a-((3-(methyl(phenyl)amino)propylamino)methyl)-1-(prop-1-en-2-yl)-2,3,3a,4,5,5a,5b,6,7,7a,8,11,11a,11b,12,13,13a,13b-octadecahydro-1H-cyclopenta[a]chrysen-9-yl)benzoic acid], with less than 100 nM.
For `C=C(C)[C@@H]1CC[C@]2(CNCCCNC)CC[C@]3(C)[C@H](CC[C@@H]4[C@@]5(C)CC=C(c6ccc(C(=O)O)cc6)C(C)(C)[C@@H]5CC[C@]43C)[C@@H]12` [Example 19, 4-((1R,3aS,5aR,5bR,7aR,11aS,11bR,13aR,13bR)-5a,5b,8,8,11a-pentamethyl-3a-((3-(methylamino)propylamino)methyl)-1-(prop-1-en-2-yl)-2,3,3a,4,5,5a,5b,6,7,7a,8,11,11a,11b,12,13,13a,13b-octadecahydro-1H-cyclopenta[a]chrysen-9-yl)benzoic acid], the EC50 is less than 100 nM.
Regarding `C=C(C)[C@@H]1CC[C@]2(CNCCn3ccnc3)CC[C@]3(C)[C@H](CC[C@@H]4[C@@]5(C)CC=C(c6ccc(C(=O)O)cc6)C(C)(C)[C@@H]5CC[C@]43C)[C@@H]12` [Example 20, 4-((1R,3aS,5aR,5bR,7aR,11aS,11bR,13aR,13bR)-3a-((2-(1H-imidazol-1-yl)ethylamino)methyl)-5a,5b,8,8,11a-pentamethyl-1-(prop-1-en-2-yl)-2,3,3a,4,5,5a,5b,6,7,7a,8,11,11a,11b,12,13,13a,13b-octadecahydro-1H-cyclopenta[a]chrysen-9-yl)benzoic acid], the EC50 is less than 100 nM.
`C=C(C)[C@@H]1CC[C@]2(CNCCN(CC)CC)CC[C@]3(C)[C@H](CC[C@@H]4[C@@]5(C)CC=C(c6ccc(C(=O)O)cc6)C(C)(C)[C@@H]5CC[C@]43C)[C@@H]12` [Example 21, 4-((1R,3aS,5aR,5bR,7aR,11aS,11bR,13aR,13bR)-3a-((2-(diethylamino)ethylamino)methyl)-5a,5b,8,8,11a-pentamethyl-1-(prop-1-en-2-yl)-2,3,3a,4,5,5a,5b,6,7,7a,8,11,11a,11b,12,13,13a,13b-octadecahydro-1H-cyclopenta[a]chrysen-9-yl)benzoic acid]: the EC50 was less than 100 nM.
The same measure, in the same setting: in the case of `C=C(C)[C@@H]1CC[C@]2(CNCCCn3ccnc3C)CC[C@]3(C)[C@H](CC[C@@H]4[C@@]5(C)CC=C(c6ccc(C(=O)O)cc6)C(C)(C)[C@@H]5CC[C@]43C)[C@@H]12` [Example 22] it was less than 100 nM; in that of `C=C(C)[C@@H]1CC[C@]2(CNCCCN3CCNC(=O)C3)CC[C@]3(C)[C@H](CC[C@@H]4[C@@]5(C)CC=C(c6ccc(C(=O)O)cc6)C(C)(C)[C@@H]5CC[C@]43C)[C@@H]12` [Example 23, 4-((1R,3aS,5aR,5bR,7aR,11aS,11bR,13aR,13bR)-5a,5b,8,8,11a-pentamethyl-3a-((3-(3-oxopiperazin-1-yl)propylamino)methyl)-1-(prop-1-en-2-yl)-2,3,3a,4,5,5a,5b,6,7,7a,8,11,11a,11b,12,13,13a,13b-octadecahydro-1H-cyclopenta[a]chrysen-9-yl)benzoic acid], less than 100 nM; in that of `C=C(C)[C@@H]1CC[C@]2(CNCCN(CCO)CCO)CC[C@]3(C)[C@H](CC[C@@H]4[C@@]5(C)CC=C(c6ccc(C(=O)O)cc6)C(C)(C)[C@@H]5CC[C@]43C)[C@@H]12` [Example 24, 4-((1R,3aS,5aR,5bR,7aR,11aS,11bR,13aR,13bR)-3a-((2-(bis(2-hydroxyethyl)amino)ethylamino)methyl)-5a,5b,8,8,11a-pentamethyl-1-(prop-1-en-2-yl)-2,3,3a,4,5,5a,5b,6,7,7a,8,11,11a,11b,12,13,13a,13b-octadecahydro-1H-cyclopenta[a]chrysen-9-yl)benzoic acid], less than 100 nM.
As to `C=C(C)[C@@H]1CC[C@]2(CNCCc3c[nH]cn3)CC[C@]3(C)[C@H](CC[C@@H]4[C@@]5(C)CC=C(c6ccc(C(=O)O)cc6)C(C)(C)[C@@H]5CC[C@]43C)[C@@H]12` [Example 25, 4-((1R,3aS,5aR,5bR,7aR,11aS,11bR,13aR,13bR)-3a-((2-(1H-imidazol-4-yl)ethylamino)methyl)-5a,5b,8,8,11a-pentamethyl-1-(prop-1-en-2-yl)-2,3,3a,4,5,5a,5b,6,7,7a,8,11,11a,11b,12,13,13a,13b-octadecahydro-1H-cyclopenta[a]chrysen-9-yl)benzoic acid], the EC50 is less than 100 nM.
For the compound `C=C(C)[C@@H]1CC[C@]2(CNCCN(C)CCO)CC[C@]3(C)[C@H](CC[C@@H]4[C@@]5(C)CC=C(c6ccc(C(=O)O)cc6)C(C)(C)[C@@H]5CC[C@]43C)[C@@H]12` [Example 26, 4-((1R,3aS,5aR,5bR,7aR,11aS,11bR,13aR,13bR)-3a-((2-((2-hydroxyethyl)(methyl)amino)ethylamino)methyl)-5a,5b,8,8,11a-pentamethyl-1-(prop-1-en-2-yl)-2,3,3a,4,5,5a,5b,6,7,7a,8,11,11a,11b,12,13,13a,13b-octadecahydro-1H-cyclopenta[a]chrysen-9-yl)benzoic acid], the EC50 is less than 100 nM.
For `C=C(C)[C@@H]1CC[C@]2(CNCCCC(=O)OC(C)(C)C)CC[C@]3(C)[C@H](CC[C@@H]4[C@@]5(C)CC=C(c6ccc(C(=O)O)cc6)C(C)(C)[C@@H]5CC[C@]43C)[C@@H]12` [Example 27, 4-((1R,3aS,5aR,5bR,7aR,11aS,11bR,13aR,13bR)-3a-((4-tert-butoxy-4-oxobutylamino)methyl)-5a,5b,8,8,11a-pentamethyl-1-(prop-1-en-2-yl)-2,3,3a,4,5,5a,5b,6,7,7a,8,11,11a,11b,12,13,13a,13b-octadecahydro-1H-cyclopenta[a]chrysen-9-yl)benzoic acid], the EC50 is less than 100 nM.
For `C=C(C)[C@@H]1CC[C@]2(CNCC(=O)OC)CC[C@]3(C)[C@H](CC[C@@H]4[C@@]5(C)CC=C(c6ccc(C(=O)O)cc6)C(C)(C)[C@@H]5CC[C@]43C)[C@@H]12` [Example 30, 4-((1R,3aS,5aR,5bR,7aR,11aS,11bR,13aR,13bR)-3a-((2-methoxy-2-oxoethylamino)methyl)-5a,5b,8,8,11a-pentamethyl-1-(prop-1-en-2-yl)-2,3,3a,4,5,5a,5b,6,7,7a,8,11,11a,11b,12,13,13a,13b-octadecahydro-1H-cyclopenta[a]chrysen-9-yl)benzoic acid], the concentration giving a half-maximal response (EC50) was less than 100 nM.

Staying with this assay, now noted: NL43, MT-2 cells infected 4-5 days with NLRluc recombinant virus, numeric value.
In the case of `C=C(C)[C@@H]1CC[C@]2(CNCCCC(=O)O)CC[C@]3(C)[C@H](CC[C@@H]4[C@@]5(C)CC=C(c6ccc(C(=O)O)cc6)C(C)(C)[C@@H]5CC[C@]43C)[C@@H]12` [Example 28, 4-((1R,3aS,5aR,5bR,7aR,11aS,11bR,13aR,13bR)-3a-((3-carboxypropylamino)methyl)-5a,5b,8,8,11a-pentamethyl-1-(prop-1-en-2-yl)-2,3,3a,4,5,5a,5b,6,7,7a,8,11,11a,11b,12,13,13a,13b-octadecahydro-1H-cyclopenta[a]chrysen-9-yl)benzoic acid], the EC50 came out at 2 nM.
For the compound `C=C(C)[C@@H]1CC[C@]2(CN3CCCC3=O)CC[C@]3(C)[C@H](CC[C@@H]4[C@@]5(C)CC=C(c6ccc(C(=O)O)cc6)C(C)(C)[C@@H]5CC[C@]43C)[C@@H]12` [Example 29], the EC50 was 1000 nM.
